Where no end group is shown, it is not given here.
Experiments:
dengue NS2B-NS3pro = target: T1, dengue NS2B-NS3pro (Dengue virus type 2, UniProt P29990); assay: Fluorogenic NS2B-NS3pro protease inhibition assay; type: biochemical, DENV-2; settings: pH 8.5, 200 mM Tris–HCl, 20 μM Boc-Gly-Arg-Arg-AMC, 2 μM enzyme, 30 min pre-incubation, 30 min reaction, fluorescence ex 350/em 440 nm, triplicates, ± SD
T1 construct: 6XHis (pQE30 vector) (N); made in house; host or cells: Escherichia coli XL1-Blue
Protocol: The bioassay used in this study was published by Rothan and co-workers. In brief, endpoint reaction mixtures with total volume of 200 μl were prepared consisted of 20 μM fluorogenic peptide substrate (Boc-Gly-Arg-Arg-AMC), 2 μM of recombinant NS2B-NS3pro, with or without RC-1 of varying concentrations, buffered at pH 8.5 with 200 mM Tris–HCl. The RC-1 was initially prepared in Tris–HCl buffer and assayed at five different concentrations, ranging from 9.3 - 150 μM. Three types of reactions which are buffer, buffer with enzyme and buffer with enzyme and different concentrations of RC-1were incubated at 28°C, 37°C and 40°C for 30 minutes. Subsequently, the substrate was added to each reaction mixture and incubated at same temperatures for another 30 minutes. Measurements were performed in triplicates using Tecan Infinite M200 Pro fluorescence spectrophotometer. Substrate cleavage was normalized against buffer only (control) and optimized at the emission at 440 nm upon excitation at 350 nm. The readings were then used for calculating Km values of peptide substrate and IC50 values of peptide inhibitors using non-linear regression models in GraphPad Prism 5.0 software as previously described.
Figure 4 The inhibition potential of RC-1 against the activity of DENV-2 NS2B-NS3pro. End point protease inhibition assay was carried out to evaluate the inhibitory potential of RC-1 against the protease’s ability to cleave a fluorogenic peptide substrate (Boc-Gly-Arg-Arg-AMC). The reaction mixtures consisted of 20 μM substrate, 2 μM of enzyme, with or without RC-1 of varying concentrations incubated at 28°C, 37°C or 40°C for 30 minutes. The results were normalized with the substrate alone and substrate with protease incubated at same temperatures. […] 2'; read as 1.2

Vero cells = assay: Maximum non-toxic dose test (cell proliferation assay); type: cell-based
Protocol: Vero cells were seeded at 1 × 10^4 cells per well in triplicate in 96 well plates and propagated at optimal conditions (37°C, 5% CO2 in humidified incubator). Recombinant RC-1 was diluted to serial concentrations (37.5, 75, 100, 125, 150 and 175 μM) with DMEM media supplemented with 2% FBS. Each dilution was tested in triplicate. Two control wells were included in each experiment: culture medium without RC-1 and culture medium with different concentrations of the RC-1 in the absence of cells to subtract the background value of RC-1 in the culture medium. The cell cultures were analyzed at 24, 48 and 72 hours using Non-Radioactive Cell Proliferation assay (Promega, USA) according to the manufacturer’s instructions.
(§1) Figure 5 The percentage of viral reduction in Vero cells after different treatments with RC-1. (A) RC-1 was diluted to various concentrations (37.5, 75, 100, 125, 150 and 175 μM) with DMEM media supplemented with 2 % FBS and added to the cell culture. The viability of cells was analyzed at 24, 48 and 72 hrs using Non-Radioactive Cell Proliferation assay. (B) The cells were grown under the optimal conditions and infected with DENV-2 at the MOI of 2. The MNTD of RC-1 (150 μM) was used to treat infected Vero cells and the results were normalized with infected cells without RC-1 as controls. Pre, simultaneous and post-infection treatments with RC-1 were applied at 24, 48 and 72 hrs of each infection. The percentage of inhibition was the highest for simultaneous treatment compared to pre and post-treatment. (Two way ANOVA was used with Bonferroni post-test, P < 0.0001).

[1] = cited from earlier work
From the text: We conducted this study to evaluate the effect of RC-1, a cationic cyclic peptide on the activity of dengue protease as a target to inhibit replication of dengue virus. The RC-1 was produced inexpensively as a soluble recombinant peptide in E. coli and the tri-disulphide bonds were correctly reformed in alkaline and diluted environment. […] Furthermore, this peptide is able to provide long-lasting prote ...

E. coli = assay: Disc diffusion susceptibility test, E. coli; type: cell-based; settings: 0.1 mg/ml RC-1, Mueller-Hinton agar, clear circular zone
Protocol: (§2) The disc diffusion susceptibility test was used to evaluate antimicrobial activity of the recombinant RC-1. The samples of recombinant RC-1 before and after refolding applications (100 μg/ml) were dropped onto a filter paper discs (0.1 mg/ml) and left to dry at room temperature. Then, the filters paper discs placed on an E. coli-inoculated Mueller-Hinton agar and a Saccharomyces cerevisiae inoculated yeast extract peptone dextrose (YPD) agar plates. Both E. coli and yeast inoculated plates were inoculated for 16 hrs at […] and 30°C, respectively.
(§3) Figure 2 Antimicrobial activity of recombinant RC-1 after refolding. Each sample of RC-1 before and after refolding (0.1 mg/ml) was dropped on filter papers discs and left to dry at room temperature. The dry filter paper discs were placed on E. coli and yeast-inoculated antibiotic-free Mueller-Hinton-gar and YPD-agar plates respectively and incubated overnight at 37°C (E. coli) or 30°C (yeast).

[2] = up to 500 μg/ml (250 μM); cited from earlier work
From the text: (§4) It has been known that the compound toxicity could hinder the development of drugs against dengue virus.

different cell lines = settings: up to 500 μg/ml (250 μM); cited from earlier work
From the text: as §4

[3] = test system: yeast (Saccharomyces cerevisiae); assay: Disc diffusion susceptibility test, yeast; type: cell-based; settings: 0.1 mg/ml RC-1, YPD agar, 30°C, clear circular zone
Protocol: as §2, §3

DENV-2 in Vero cells = assay: DENV-2 RNA reduction in infected Vero cells by real-time PCR; type: cell-based; settings: for reduction in viral replication / reduction in total viral RNA copies: 150 μM RC-1, MOI of 2; for reduction in total viral RNA copies: ± SD
Protocol: Three independent experiments were carried out for pre, simultaneous and post-infection treatments with RC-1 at 24, 48 and 72 hrs of each infection in triplicates. Vero cells were grown in a 24-well tissue culture plate (1 × 10^5 cells/well), incubated 24 hrs under optimal conditions and infected with DENV-2 (MOI of 2). For pre-treatment infection, 150 μM of RC-1 was added to the cells before virus inoculation and incubated for 24 hrs. Afterwards, DENV-2 supernatant was added, followed by incubation for 1 hr with gentle shaking every 10 min for optimal virus to cells contact. The virus supernatant was removed, and the cells were washed twice with fresh serum-free DMEM media to remove residual virus. New complete DMEM media were added and the cultures were incubated for 24, 48 and 72 hrs at 37°C, supplemented with 5% CO2. Same applications were used for simultaneous treatment infection except the peptide was mixed with the virus supernatant and incubated at 37°C for 1 h, and then inoculated onto Vero cells. The post-treatment infection was carried out after inoculation of Vero cells with DENV-2 and the complete DMEM medium was added containing the RC-1. Then, the cultures were incubated for 24, 48 and 72 hrs at 37°C and 5% CO2 with three wells of infected cells in each experiment were kept without RC-1 as controls. Cellular supernatants were collected and stored at −80°C for viral quantification using real time PCR.
For quantification of copy number of DENV-2 RNA, the standard curve was generated by 10-fold serial dilution of known copies of DENV-2 RNA. Viral RNA was extracted from culture supernatant using QIAmp viral RNA mini kit (Qiagen, Germany) according to the manufacturer’s instructions. A fragment located at the 5'UTR region of the virus genome was used to generate the primers. One-step RT-PCR using SyBr Green Master Kit (Qiagen, Germany) was used to conduct absolute quantification using ABI7300 machine from Applied Biosystems (Foster City, CA). The PCR profile was 1 cycle of 50°C for 2 min, 1 cycle of 95°C for 10 min, 40 cycles of 10 sec denaturation at 95°C, 20 sec annealing at 57.7°C with a single fluorescence emission measurement and 30 sec extension at 72°C, followed by 5 min at 72°C for final extension. Dissociation curve analysis was added to the end of each run. Results were analyzed using the company's Sequence Detection Software Version 1.3.
as §1

GICRCICGRGICRCICGR (also: bicyclic or more (positions not given here)) [RC-1, retrocyclin-1, disulphide cyclic peptide, theta-defensin analogue, circular, cationic, tri-disulphide bonded (Cys3-Cys16, Cys5-Cys14, Cys7-Cys12)]
IC50 (dengue NS2B-NS3pro; 28°C): 46.1 ± 1.7 µM
IC50 (dengue NS2B-NS3pro; 37°C): 21.4 ± 1.6 µM
IC50 (dengue NS2B-NS3pro; 40°C): 14.1 ± 1.2 µM
cellular morphological abnormalities (Vero cells; Vero cells): no noticeable cellular morphological abnormalities
cellular toxicity (in words) (Vero cells; Vero cells, 150 μM): low cellular toxicity
maximum non-toxic dose (MNTD) (Vero cells; all three incubation periods, 24, 48 and 72 hrs, 37.5-175 μM tested, DMEM 2% FBS, triplicate): 150 µM
fold potency of cyclic RC-1 over the open chain analogue [1]: 3 fold
antimicrobial activity (E. coli): exhibited antimicrobial activity
haemolytic activity [2]: neither haemolytic activity nor cytotoxicity
cytotoxicity in different cell lines (different cell lines): neither haemolytic activity nor cytotoxicity
antimicrobial activity [3]: exhibited antimicrobial activity
reduction in viral replication (DENV-2 in Vero cells; post-treatment, 48 hrs, triplicates): 30%
reduction in viral replication (DENV-2 in Vero cells; post-treatment, 72 hrs, triplicates): 45%
viral replication (in words) (DENV-2 in Vero cells; pre, simultaneous and post infection treatment modes, maximum non-toxic dose): significantly declined
reduction in viral replication (DENV-2 in Vero cells; pre-treatment (24 hrs before virus), 48 hrs, triplicates): 40%
reduction in viral replication (DENV-2 in Vero cells; pre-treatment (24 hrs before virus), 72 hrs, triplicates): 38%
reduction in total viral RNA copies (DENV-2 in Vero cells; simultaneous treatment, 24 hrs, triplicates): 45.5% ± 4.2
reduction in viral replication (DENV-2 in Vero cells; simultaneous treatment, 72 hrs): 85%
reduction in total viral RNA copies (DENV-2 in Vero cells; simultaneous treatment, 72 hrs, triplicates): 85% ± 7.1

Reference: article PMC3575220, “Inhibition of dengue NS2B-NS3 protease and viral replication in Vero cells by recombinant retrocyclin-1” (BMC Infectious Diseases, 2012)
